In patent US20260285932A1, “PEPTIDE TYROSINE-TYROSINE ANALOG AND USE THEREOF” (THE UNITED BIO-TECHNOLOGY (HENGQIN) CO., LTD., priority 2023, published 2026):

Legend:
[1] = biological target: T1, human Y5 receptor (hNPY5R) (Homo sapiens, UniProt Q15761); assay: calcium flux (FLIPR) assay, functional activity on human Y5 receptor; conditions: read-out: hNPY5R EC50, average, at least 3 independent tests
T1 sequence (Q15761 1-445): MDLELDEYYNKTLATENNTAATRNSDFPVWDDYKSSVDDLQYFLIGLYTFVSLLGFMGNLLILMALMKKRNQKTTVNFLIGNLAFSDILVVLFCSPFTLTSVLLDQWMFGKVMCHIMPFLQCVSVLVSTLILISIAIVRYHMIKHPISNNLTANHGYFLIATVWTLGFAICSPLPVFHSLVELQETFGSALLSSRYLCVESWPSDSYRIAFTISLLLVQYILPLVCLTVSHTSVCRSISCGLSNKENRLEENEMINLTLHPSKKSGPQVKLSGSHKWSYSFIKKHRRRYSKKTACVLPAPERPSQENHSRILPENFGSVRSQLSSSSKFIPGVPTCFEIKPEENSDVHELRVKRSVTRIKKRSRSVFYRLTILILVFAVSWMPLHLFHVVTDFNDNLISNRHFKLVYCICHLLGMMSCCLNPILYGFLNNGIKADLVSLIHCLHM
Experimental: (§3) 1) Preheated the culture medium, 1×DPBS and 0.05% trypsin EDTA in a 37° C. water bath for more than 30 minutes in advance, and ready for use.
(§4) 3) Cultured cells were taken out from the incubator, added with 1×DPBS, incubated for a moment, suctioned to remove DPBS, added with an appropriate amount of 0.05% trypsin-EDTA for cell digestion, digestion terminated with 10% FBS medium, and dispersed the cells.
(§5) 4) The dispersed cells were transferred into a 50 mL centrifuge tube using a pipette, centrifuged at 1000 rpm for 5 minutes, resuspended in culture medium, dispersed, and counted.
(§6) 5) The cells were diluted with culture medium to 1×10^6 cells/mL, and inoculated at a volume of 20 μL/well of cells onto 384-well poly-Lysine-coated cell plates.
(§7) 6) The cells were incubated overnight at 37° C. in an incubator with 5% CO2. […]
(§8) 4) The calcium ion activation rate was calculated for each well: % Activity=(signal value of sample well-average signal value of low-signal control well)/(average signal value of high-signal control well-average signal value of low-signal control well). Using the logarithm of the concentration of analogues as the horizontal axis and the activation rate of calcium ion fluorescence signal as the vertical axis, the “Nonlinear regression (curve fit)-log (antigen) vs. response Variable slope” model in GraphPad Prism 5.0 was used for fitting to calculate the EC50 of the sample.

[2] = pharmacokinetics in crab-eating macaques; format: in vivo; conditions: male crab-eating macaque, 0.246 mg/kg single s.c., plasma
Experimental: (§1) Blood samples were collected from each animal at each time point after administration, and the blood samples were centrifuged at around 4° C., 3200 g, for 10 minutes. Plasma was collected separately, transferred to pre-labeled 96-well plates or polypropylene tubes, speedily frozen on dry ice, and stored at −60° C. or lower until LC-MS/MS analysis.
(§2) LC-MS/MS method was adopted to determine the concentration of the measured analogues in blood samples. The data on the changes in plasma concentration over time were plotted into a chart and analyzed using non partitioned methods with Phoenix WinNonlin 6.3 software program. Relevant PK parameters were calculated based on the administration routes.
The plasma pharmacokinetics of PYY analogues in male crab-eating macaques were evaluated after a single subcutaneous administration of 0.246 mg/kg Analogue 3. Blood samples were collected from 2 crab-eating macaques at each time point after administration for 1 h, 2 h, 4 h, 8 h, 12 h, 24 h, 48 h, 72 h, 96 h, 120 h, 144 h, 168 h, 192 h, 240 h, 288 h, 336 h, 408 h, 504 h, extending to 504 hours. Due to the use of discontinuous sampling to evaluate the kinetics of PYY analogues in crab-eating macaques, the pharmacokinetic parameters of Analogue 3 after a single subcutaneous administration of 0.246 mg/kg were listed using average concentration-time data.

[3] = food intake and body weight of normal mice after a single subcutaneous injection; format: in vivo; conditions: C57BL/6 mice, over 3 days; for Body weight changes: vs baseline
Experimental: 6-8 weeks old male C57BL/6 mice were fed in animal feeding rooms with strictly controlled environmental conditions, the temperature in the feeding room was maintained at 20° C.-24° C. and the humidity was maintained at 30%-70%. The light cycle in the animal feeding room was 12 hours (starting at 7:00 am and ending at 7:00 pm). During the experiment, animals were kept in single cages and toys were provided in each cage. During the experiment, animals were free to consume food (growth/reproduction feed for mice and rats) and water.
Body weight without fasting and initial food weight before administration were recorded, and the animals were administered with a single subcutaneous injection, and the daily body weight and food intake weight were recorded for 3 days after administration. The activity, water intake, diet, and body weight changes of animals were observed every day. The changes in body weight and food intake weight were calculated compared to the baseline levels of each group (the initial body weight and food intake weight before administration), with body weight changes expressed as percentages (baseline was 100%).

[4] = biological target: T2, recombinant human NPY2 receptor (Homo sapiens, UniProt P49146); assay: cAMP assay, in vitro functional activity on NPY2 receptors; format: cell-based; conditions: inhibition of Forskolin-induced cAMP in HEK 293 cells overexpressing hNPY2R; average, at least 3 independent tests
T2 construct: expressed in transfected cells; host or cells: HEK 293
T2 sequence (P49146 1-381): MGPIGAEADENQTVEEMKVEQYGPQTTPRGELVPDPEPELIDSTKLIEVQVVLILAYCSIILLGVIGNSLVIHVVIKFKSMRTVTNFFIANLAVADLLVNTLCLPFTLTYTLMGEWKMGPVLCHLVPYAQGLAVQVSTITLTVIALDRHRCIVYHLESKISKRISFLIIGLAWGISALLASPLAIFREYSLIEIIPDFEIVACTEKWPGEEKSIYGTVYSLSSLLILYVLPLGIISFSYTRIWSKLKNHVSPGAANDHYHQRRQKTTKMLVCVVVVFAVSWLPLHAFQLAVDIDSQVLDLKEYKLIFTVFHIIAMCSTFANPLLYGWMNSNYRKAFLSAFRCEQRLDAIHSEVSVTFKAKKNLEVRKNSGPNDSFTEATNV
Experimental: 2) Preparation of cells: the cultured cells were collected into a 15 mL sterile centrifuge tube, and centrifuged at 1000 rpm for 5 minutes, with the supernatant being discarded. 10 mL of 1×PBS was added, mixed gently, and centrifuged at 1000 rpm for 5 minutes, with the supernatant being discarded.
4) According to the arrangement order of Map analogues, 100 nL of prepared analogues were added to a 384-well cell reaction plate using Echo. After addition, they were centrifuged at 1000 rpm for 1 minute.
5) 5 μL of 2 μM Forskolin (prepared with detection buffer) was added to a 384-well cell reaction plate using Multidrop Combi and centrifuged at 1000 rpm for 1 minute. 5 μL of detection buffer containing cells was added to a 384-well reaction plate, ensuring a cell count of 3000 cells per well.
6) 10 μL cAMP detection reagent solution (1×cell lysis buffer 9.5 mL, 1×D2-cAMP solution, 1×cAMP-antibody) was added to the corresponding wells of the cell reaction plate using Multidrop Combi. It was covered with a lid and incubated at room temperature in the dark for 1 hour.
7) After incubation for 1 hour, it was placed in an EnVision microplate reader for measurement.

[5] = biological target: T3, human NPY1 receptor (hNPY1R) (Homo sapiens, UniProt P25929); assay: calcium flux (FLIPR) assay, functional activity on human NPY1 receptor; format: cell-based; conditions: average, at least 3 independent tests
T3 construct: expressed in transfected cells
T3 sequence (P25929 1-384): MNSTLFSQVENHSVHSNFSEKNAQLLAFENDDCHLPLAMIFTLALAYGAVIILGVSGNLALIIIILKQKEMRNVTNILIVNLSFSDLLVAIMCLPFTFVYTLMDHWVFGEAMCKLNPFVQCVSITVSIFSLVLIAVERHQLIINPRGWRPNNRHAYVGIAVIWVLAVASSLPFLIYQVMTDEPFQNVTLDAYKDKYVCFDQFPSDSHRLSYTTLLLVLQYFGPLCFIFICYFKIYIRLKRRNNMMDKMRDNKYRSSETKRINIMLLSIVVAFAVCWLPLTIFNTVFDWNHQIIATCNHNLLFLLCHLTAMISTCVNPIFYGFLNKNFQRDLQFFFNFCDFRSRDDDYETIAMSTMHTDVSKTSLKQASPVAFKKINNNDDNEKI
Experimental: as §3, §4, §5, §6, §7, §8

[6] = pharmacokinetics in SD rats; format: in vivo; conditions: male rat, 0.492 mg/kg single s.c., plasma
Experimental: as §1, §2
The plasma pharmacokinetics of PYY analogues in male SD rats were evaluated after a single subcutaneous administration of 0.492 mg/kg Analogue 3. Blood samples were collected from 3 rats at each time point after administration for 0.5 h, 1 h, 2 h, 4 h, 8 h, 12 h, 16 h, 24 h, 48 h, 72 h, 96 h, 120 h, 144 h, 168 h, extending to 168 h. Due to the use of discontinuous sampling to evaluate the kinetics of PYY analogues in rats, the pharmacokinetic parameters of Analogue 3 after a single subcutaneous administration of 0.492 mg/kg were listed using average concentration-time data.

| Substance | EC50 [1] | AUCinf [2] | Cmax [2] | T1/2 [2] | Tmax [2] | Accumulated food intake weight ([3]; 3 nmol/kg single s.c.) | Body weight changes ([3]; 3 nmol/kg single s.c.) | Accumulated food intake weight ([3]; 10 nmol/kg single s.c.) | Body weight changes ([3]; 10 nmol/kg single s.c.) | Accumulated food intake weight ([3]; 30 nmol/kg single s.c.) | Body weight changes ([3]; 30 nmol/kg single s.c.) | EC50 [4] | EC50 [5] | AUCinf [6] | Cmax [6] | T1/2 [6] | Tmax [6] |
| --- | --- | --- | --- | --- | --- | --- | --- | --- | --- | --- | --- | --- | --- | --- | --- | --- | --- |
| PKPEK(AEEAc-γGlu-CO(CH2)16COOH)PE-Aib-DASPEEWQRYY-Aib-ELRHYLNWLTRQRY-NH2 [Analogue 3] | 92.7 nM | 336.537 µg·h/mL | 1775 ng/mL | 125.5 h | 12 h | 9.73 ± 0.48 g | −1.04% ± 2.02% | 8.24 ± 0.27 g | −0.69% ± 1.64% | 6.24 ± 0.26 g | −6.52% ± 1.37% | 0.037 nM | > 50 nM | 79.609 µg·h/mL | 1941 ng/mL | 24.7 h | 13.3 h |
| PKPEK(AEEAc-γGlu-CO(CH2)16COOH)PEED-Aib-SPEEWQRYY-Aib-SLRHYLNWLTRQRY-NH2 [Analogue 1] |  |  |  |  |  | 11.54 ± 0.40 g | 2.32% ± 2.53% | 9.29 ± 0.27 g | 1.23% ± 2.92% | 8.10 ± 0.26 g | 0.51% ± 2.56% | 0.041 nM | > 50 nM |  |  |  |  |
